Assay results: patent publication US20070099232A1, “Ecdysone receptor ligand-binding domain structure” (priority 2003, published 2007)

Legend:
BtEcR = BtEcR competitive binding assay with [3H]-ponasterone A as tracer; design: species or system Bemisia tabaci
Source text: As will be readily understood by persons skilled in this field, the methods of the present invention provide a rational method for designing and selecting compounds which interact with an ecdysone receptor and specifically that of B. tabaci. In the majority of cases these compounds will require further development in order to increase activity. Such further development is routine in this field and will be assisted by the structural information provided in this application and screens employing EcR and optionally USP nucleotide and/or polypeptide sequences. In vitro competitive binding screens compete unlabelled test compounds against a labelled ligand (tracer) to observe if they inhibit the binding of the latter to functional receptor LBDs. In vitro competition binding screens may utilise LBD sequences or D (linker) domain sequences linked to LBD sequences. In vivo cell-based screens employ full-length EcR and optionally full-length USP nucleotide sequences functionally linked to suitable promoters for expression in mammalian, insect or yeast cells containing a suitable reporter gene construct. Alternatively, in vivo cell-based screens may employ the EF or DEF domain encoding regions of EcR and optionally of USP nucleotide sequences functionally linked to nucleotide sequences encoding domains from other transcription factors. In particular, the BtEcR nucleotide sequence (SEQ ID NO 1) and/or polypeptide sequence (SEQ ID NO 2) and optionally BtUSP nucleotide sequence and/or polypeptide sequence or the corresponding EF or DEF domains may be utilised in screens to develop improved compounds derived by rational design employing the B. tabaci EcR/USP crystal structure. It is intended that in particular embodiments the methods of the present invention includes such further developmental steps.
Biological assays to measure the activity of ecdysone receptor agonists and antagonists are well known in the field. Traditional screens for ecdysone receptor agonists examine candidate compounds for an ability to induce the moulting or pupation of whole insect larvae (Becker, 1941; Cymborowski, 1989), the evagination of imaginal discs (Fristrom J. W. & Yund, 1976) or morphological transformation of the Drosophila BII cell line (Clément et al., 1993). More recent assays use mammalian or other eukaryotic cells that have been co-transfected with a recombinant ecdysone receptor and a reporter gene linked to an appropriate response element Both types of screen can also be reformatted to detect non-agonist ligands (antagonists), which can be recognised by their ability to inhibit the activation the receptor by an agonist provided as a standard component of the assay (Yang et al., 1986; Oberdorster et al., 2001)(Oberdorster et al, 2001). […] In addition, potential agonists and antagonists may be screened for their ability to inhibit the binding of europium-labelled ecdysone receptor ligands to soluble, recombinant ecdysone receptor in a microplate-based format Europium is a lanthanide fluorophore, the presence of which can be measured using time-resolved fluorometry. […] Binding affinity and inhibitor potency may also be measured for candidate inhibitors using biosensor technology. […]

[1] = tested on: Choristoneura fumiferana EcR A110P; conditions: single point mutation A110P; cited from earlier work
[2] = target: T1, dipteran (Lucilia cuprina) receptor (Lucilia cuprina, UniProt O18531); experiment: In vitro binding studies employing purified recombinant LBDs (dipteran receptor); conditions: unpublished results
T1 construct: made in house
T1 sequence (O18531 442-677 limits assumed): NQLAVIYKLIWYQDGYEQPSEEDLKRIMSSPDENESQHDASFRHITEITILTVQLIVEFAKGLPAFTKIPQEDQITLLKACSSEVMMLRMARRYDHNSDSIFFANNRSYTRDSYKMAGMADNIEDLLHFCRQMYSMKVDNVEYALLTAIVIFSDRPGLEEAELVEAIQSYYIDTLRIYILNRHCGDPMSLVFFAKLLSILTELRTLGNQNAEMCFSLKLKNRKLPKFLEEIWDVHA
Source text: (§1) Table 3 presents the inter-order variation apparent across a variety of Insecta EcR LBDs for those residues that line the ecdysteroid binding pocket observed in the B. tabaci structure. […] For example, in the hemipteran B. tabaci (resistant to the bisacylhydrazine compounds) residue 272 is methionine, whereas in lepidopteran species (susceptible to bisacylhydrazines) the residue at this position is a smaller valine. Attention has also been drawn to the potential importance of the residue at this position in relation to the control spectrum of bisacylhydrazine insecticides in the communication by Billas et al. (2003) reporting the crystal structure of the lepidopteran Heliothis virescens EcR/USP heterodimeric LBD. It is apparent from Table 3 of the present application that the methionine at position 272 is present in the Hemiptera, Diptera, Orthoptera and Coleoptera while the residue in this position of the Lepidoptera is valine. […] Clearly the response to bisacylhydrazines is not simply dependent on the residue at the position corresponding to 272 in B. tabaci.

[3] = tested on: whitefly (B. tabaci) receptor; experiment: In vitro binding studies employing purified recombinant LBDs (whitefly receptor); design: species or system Bemisia tabaci; conditions: unpublished results
Source text: as §1

[4] = tested on: Lepidotera versus Diptera; conditions: selectivity at the level of insect orders; cited from earlier work
[5] = target: recombinant B. tabaci receptor LBD (BtEcR/BtUSP heterodimer); experiment: Equilibrium binding studies with [3H]-ponasterone A as ligand; design: species or system Bemisia tabaci; conditions: by direct curve fitting, recombinant heterodimeric LBD
Method: Pilot-scale expression of recombinant heterodimeric BtEcR-BtUSP LBD was achieved by infection of suspension cultures of Sf9, Sf21 and or Hi-5 insect cells in spinner flasks or Schott bottles on a shaker platform maintained at 27° C. Insect cells infected with the virus engineered to express BtEcR/BtUSP ligand-binding domain were shown by gel electrophoresis to contain the expressed polypeptides corresponding to the two tagged domains.

[6] = tested on: BtEcR/BtUSP heterodimer binding to EcRE DNA; experiment: Electrophoretic mobility shift assay (EMSA) of receptor binding to EcRE (hsp27 response element); assay type: biochemical, Bemisia tabaci; conditions: in the presence of 5mM MgCl2; compared to binding without hormone
Method: DNA binding function was assessed by electrophoretic mobility shift assay (EMSA). For these experiments, EcR and USP proteins were translated as above but using unlabelled methionine. The EcRE probe (hsp27 response element) was prepared by α-^32P labelling 5 pmol of annealed oligo (5′[…]3′ and 5′[…]3′) with Klenow ([…] Labelling Kit, Geneworks). This mix was then phenol/chloroform extracted, ethanol precipitated and resuspended in 100 μl of TE. Binding and electrophoresis were performed as described by (Molloy, 2000). For a 20 μl reaction mix, 2.5 μl of each translated extract was incubated with 8.0 μl of BufferA (20 mM HEPES pH 7.9, 100 mM KCI, 2 mM dithiothreitol (DTT), 1 mM EDTA, 20% (v/v) glycerol), 2 μl of 2% (v/v) NP-40, 1 μl BSA (10 mg/ml), 0.5 μl 2 mg/ml poly (dI-dC).poly(dI-dC), 6 μg single stranded DNA plus or minus 1 μl of 100 mM MgCl2. After 20 minutes at room temperature, 0.05 pmoles of labelled probe was added and the mix was incubated again for 20 minutes. One sample also had the addition of excess (1.25 pmoles) unlabelled EcRE DNA. 10 μl of the mix was analysed by electrophoresis at 4° C., 80 V in a 0.25×TBE, 5% polyacrylamide gel. After fixing and drying, radioactive species were visualized by the Molecular Dynamics Phosphorimaging system. […]

## O=C(CSC1NCCN1)c1ccccc1 [IV]
BtEcR
  binding in BtEcR competitive binding assay: weak-moderate binding

## CCc1c(OC)cccc1C(=O)NN(C(=O)c1cc(C)cc(C)c1)C(C)(C)C [RG-102240]
[1]
  effect of A110P point mutation on response of receptor to ligand: without affecting response

## CCc1ccc(C(=O)NN(C(=O)c2cc(C)cc(C)c2)C(C)(C)C)cc1 [RH5992]
BtEcR
  binding in BtEcR competitive binding assay: negligible binding
[2]
  affinity of receptor for compound: significant affinity
[3]
  affinity of receptor for compound: only very low affinity
[4]
  effectiveness against Lepidotera relative to Diptera: two to three orders of magnitude more effective

## O=C1OC(c2cccs2)=N/C1=C/c1ccccc1 [compound III]
BtEcR
  binding in BtEcR competitive binding assay: weak-moderate binding

## CC(C)(C)C(=O)N1N=C(c2ccccc2)OC1(C)c1ccc(F)cc1 (centres unmarked) [compound II]
BtEcR
  binding in BtEcR competitive binding assay: negligible binding

## CC(C)(C)N(NC(=O)c1ccccc1)C(=O)c1ccccc1 [compound I]
BtEcR
  binding in BtEcR competitive binding assay: negligible binding

## CC(C)CC[C@@H](O)[C@](C)(O)[C@H]1CC[C@@]2(O)C3=CC(=O)[C@@H]4C[C@@H](O)[C@@H](O)C[C@]4(C)[C@H]3CC[C@]12C [ponasterone A]
[5]
  Kd: 1.21 ± 0.17 nM
[6]
  effect of hormone on binding of receptor heterodimer to EcRE: clearly enhanced binding
